Test results reported in the supplement of paper PMC4932681.

Legend:
T-47D [1] = experiment: drug sensitivity score (DSS) (DSS (dimensionless)); higher = more sensitive; extreme values may be limits of the assay; details: 72 h
Experimental: (§1)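 FIMM FO2B library drugs were tested at 5 concentrations (10,000-fold range) for 72 h, with CellTiter-Glo viability normalised to DMSO and benzethonium chloride controls. The Drug Sensitivity Score (DSS) is computed from the fitted logistic dose-response curve (area-based; 0 = inactive). Resistant lines and the 'in 1µM tamoxifen' arms were tested in 1 µM 4-OH-tamoxifen.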

ZR-75-1 Tam2 [2] = experiment: as above; details: 4-OH-tamoxifen in medium 1 µM; 72 h
Experimental: as §1

ZR-75-1 [3] = experiment: as above; details: 72 h
Experimental: as §1

T-47D Tam1 [4] = experiment: as above; details: 4-OH-tamoxifen in medium 1 µM; 72 h
Experimental: as §1

MCF-7 Tam1 [5] = experiment: as above; details: 4-OH-tamoxifen in medium 1 µM; 72 h
Experimental: as §1

T-47D Tam2 = experiment: as above; details: 4-OH-tamoxifen in medium 1 µM; 72 h
Experimental: as §1

BT-474 [6] = experiment: as above; details: 72 h
Experimental: as §1

BT-474 Tam2 [7] = experiment: as above; details: 4-OH-tamoxifen in medium 1 µM; 72 h
Experimental: as §1

ZR-75-1 Tam1 [8] = experiment: as above; details: 4-OH-tamoxifen in medium 1 µM; 72 h
Experimental: as §1

MCF-7 [9] = experiment: as above; details: 72 h
Experimental: as §1

BT-474 Tam1 [10] = experiment: as above; details: 4-OH-tamoxifen in medium 1 µM; 72 h
Experimental: as §1

T-47D [11] = experiment: relative IC50 (midpoint of fitted logistic curve, plateau may be below 50% inhibition; CellTiter-Glo viability); higher = less potent; details: 72 h
Experimental: (§2)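 FIMM FO2B library drugs were plated at 5 concentrations spanning a 10,000-fold range in 384-well plates. Cells were incubated for 72 h at 37 °C and viability was read by CellTiter-Glo, normalised to DMSO (0% inhibition) and 100 µM benzethonium chloride (100% inhibition). IC50 values come from logistic dose-response fits (Breeze pipeline). Tamoxifen-resistant lines and the 'in 1µM tamoxifen' parental arms were tested in medium with 1 µM 4-OH-tamoxifen.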

ZR-75-1 Tam2 [12] = experiment: as above; details: 4-OH-tamoxifen in medium 1 µM; 72 h
Experimental: as §2

ZR-75-1 [13] = experiment: as above; details: 72 h
Experimental: as §2

T-47D Tam1 [14] = experiment: as above; details: 4-OH-tamoxifen in medium 1 µM; 72 h
Experimental: as §2

MCF-7 Tam1 [15] = experiment: as above; details: 4-OH-tamoxifen in medium 1 µM; 72 h
Experimental: as §2

BT-474 [16] = experiment: as above; details: 72 h
Experimental: as §2

BT-474 Tam2 [17] = experiment: as above; details: 4-OH-tamoxifen in medium 1 µM; 72 h
Experimental: as §2

MCF-7 [18] = experiment: as above; details: 72 h
Experimental: as §2

BT-474 Tam1 [19] = experiment: as above; details: 4-OH-tamoxifen in medium 1 µM; 72 h
Experimental: as §2

ZR-75-1 Tam1 [20] = experiment: as above; details: 4-OH-tamoxifen in medium 1 µM; 72 h
Experimental: as §2

| SMILES | relative IC50 (T-47D [11]; 4-OH-tamoxifen in medium 0 µM) | relative IC50 (T-47D [11]; 4-OH-tamoxifen in medium 1 µM) | relative IC50 (T-47D Tam1 [14]) | relative IC50 (MCF-7 Tam1 [15]) | relative IC50 (BT-474 [16]; 4-OH-tamoxifen in medium 0 µM) | relative IC50 (BT-474 [16]; 4-OH-tamoxifen in medium 1 µM) | relative IC50 (BT-474 Tam2 [17]) | relative IC50 (MCF-7 [18]; 4-OH-tamoxifen in medium 0 µM) | relative IC50 (MCF-7 [18]; 4-OH-tamoxifen in medium 1 µM) | relative IC50 (BT-474 Tam1 [19]) | drug sensitivity score (T-47D [1]; 4-OH-tamoxifen in medium 0 µM) | drug sensitivity score (T-47D [1]; 4-OH-tamoxifen in medium 1 µM) | drug sensitivity score (ZR-75-1 Tam2 [2]) | drug sensitivity score (ZR-75-1 [3]; 4-OH-tamoxifen in medium 0 µM) | drug sensitivity score (ZR-75-1 [3]; 4-OH-tamoxifen in medium 1 µM) | drug sensitivity score (T-47D Tam1 [4]) | drug sensitivity score (MCF-7 Tam1 [5]) | drug sensitivity score (T-47D Tam2) | drug sensitivity score (BT-474 [6]; 4-OH-tamoxifen in medium 0 µM) | drug sensitivity score (BT-474 [6]; 4-OH-tamoxifen in medium 1 µM) | drug sensitivity score (BT-474 Tam2 [7]) | drug sensitivity score (ZR-75-1 Tam1 [8]) | drug sensitivity score (MCF-7 [9]; 4-OH-tamoxifen in medium 0 µM) | drug sensitivity score (MCF-7 [9]; 4-OH-tamoxifen in medium 1 µM) | drug sensitivity score (BT-474 Tam1 [10]) | relative IC50 (ZR-75-1 Tam2 [12]) | relative IC50 (ZR-75-1 [13]; 4-OH-tamoxifen in medium 0 µM) | relative IC50 (ZR-75-1 [13]; 4-OH-tamoxifen in medium 1 µM) | relative IC50 (ZR-75-1 Tam1 [20]) |
| --- | --- | --- | --- | --- | --- | --- | --- | --- | --- | --- | --- | --- | --- | --- | --- | --- | --- | --- | --- | --- | --- | --- | --- | --- | --- | --- | --- | --- | --- |
| NC(=O)c1ccc(I)c([N+](=O)[O-])c1 | > 10 µM | > 10 µM | > 10 µM | > 10 µM | > 10 µM | > 10 µM | > 10 µM | > 10 µM | > 10 µM | > 10 µM | 0 | 0 | 0 | 0 | 0 | 0 | 0 | 0.229 | 0 | 0 | 0 | 0 | 0 | 0 | 0 | > 10 µM | > 10 µM | > 10 µM | – |
| COc1cc2nccc(Oc3ccc(NC(=O)C4(C(=O)Nc5ccc(F)cc5)CC4)cc3)c2cc1OC [Cabozantinib (XL184)] | > 1 µM | > 1 µM | > 1 µM | > 1 µM | > 1 µM | – | > 1 µM | > 1 µM | – | – | 0 | 0 | 0 | 0 | 0 | 0 | 0 | 0.0065 | 0 | 0.138 | 0 | 0.0383 | 0 | 0.282 | 0.113 | > 1 µM | > 1 µM | > 1 µM | – |
| C=C1C[C@@H]2[C@H](CC[C@]3(C)C(=O)CC[C@@H]23)[C@@]2(C)C=CC(=O)C=C12 [Exemestane] | > 10 µM | > 10 µM | > 10 µM | > 10 µM | > 10 µM | > 10 µM | > 10 µM | – | – | > 10 µM | 0 | 0 | 0 | 0 | 0 | 0 | 0 | 0.965 | 0 | 0 | 0 | 0 | 1.3 | 0 | 0 | > 10 µM | > 10 µM | > 10 µM | > 10 µM |
| Cc1ccc(NC(=O)c2ccc(CN3CCN(C)CC3)cc2)cc1Nc1nccc(-c2cccnc2)n1 [Imatinib] | – | > 10 µM | > 10 µM | > 10 µM | > 10 µM | – | – | > 10 µM | – | 4.03 µM | 0 | 0 | 0 | 0 | 0.933 | 0 | 0 | 0.454 | 0 | 0.471 | 1.21 | 0 | 0 | 0 | 1.97 | > 10 µM | > 10 µM | – | > 10 µM |

Second part, led by results:

| relative IC50 (T-47D [11]; 4-OH-tamoxifen in medium 0 µM) | relative IC50 (T-47D [11]; 4-OH-tamoxifen in medium 1 µM) | relative IC50 (T-47D Tam1 [14]) | relative IC50 (MCF-7 Tam1 [15]) | relative IC50 (BT-474 [16]; 4-OH-tamoxifen in medium 0 µM) | relative IC50 (BT-474 [16]; 4-OH-tamoxifen in medium 1 µM) | relative IC50 (BT-474 Tam2 [17]) | relative IC50 (MCF-7 [18]; 4-OH-tamoxifen in medium 0 µM) | relative IC50 (MCF-7 [18]; 4-OH-tamoxifen in medium 1 µM) | relative IC50 (BT-474 Tam1 [19]) | SMILES | drug sensitivity score (T-47D [1]; 4-OH-tamoxifen in medium 0 µM) | drug sensitivity score (T-47D [1]; 4-OH-tamoxifen in medium 1 µM) | drug sensitivity score (ZR-75-1 Tam2 [2]) | drug sensitivity score (ZR-75-1 [3]; 4-OH-tamoxifen in medium 0 µM) | drug sensitivity score (ZR-75-1 [3]; 4-OH-tamoxifen in medium 1 µM) | drug sensitivity score (T-47D Tam1 [4]) | drug sensitivity score (MCF-7 Tam1 [5]) | drug sensitivity score (T-47D Tam2) | drug sensitivity score (BT-474 [6]; 4-OH-tamoxifen in medium 0 µM) | drug sensitivity score (BT-474 [6]; 4-OH-tamoxifen in medium 1 µM) | drug sensitivity score (BT-474 Tam2 [7]) | drug sensitivity score (ZR-75-1 Tam1 [8]) | drug sensitivity score (MCF-7 [9]; 4-OH-tamoxifen in medium 0 µM) | drug sensitivity score (MCF-7 [9]; 4-OH-tamoxifen in medium 1 µM) | drug sensitivity score (BT-474 Tam1 [10]) | relative IC50 (ZR-75-1 Tam2 [12]) | relative IC50 (ZR-75-1 [13]; 4-OH-tamoxifen in medium 0 µM) | relative IC50 (ZR-75-1 [13]; 4-OH-tamoxifen in medium 1 µM) | relative IC50 (ZR-75-1 Tam1 [20]) |
| --- | --- | --- | --- | --- | --- | --- | --- | --- | --- | --- | --- | --- | --- | --- | --- | --- | --- | --- | --- | --- | --- | --- | --- | --- | --- | --- | --- | --- | --- |
| > 10 µM | > 10 µM | > 10 µM | > 10 µM | > 10 µM | > 10 µM | > 10 µM | – | > 10 µM | – | Cc1ccc(-c2cc(C(F)(F)F)nn2-c2ccc(S(N)(=O)=O)cc2)cc1 [Celecoxib] | 0 | 0 | 0 | 0 | 0.0083 | 0 | 0 | 0.335 | 0 | 0 | 0 | 0 | 0.0979 | 0 | 0.0337 | > 10 µM | > 10 µM | – | > 10 µM |
| 0.0278 µM | 0.117 µM | 0.00744 µM | 0.0527 µM | – | 0.0609 µM | – | 0.00668 µM | 0.00894 µM | 0.0863 µM | Cn1c(=O)n(-c2ccc(C(C)(C)C#N)cc2)c2c3cc(-c4cnc5ccccc5c4)ccc3ncc21 [Dactolisib (NVP-BEZ235)] | 10.4 | 7.65 | 12.6 | 12.9 | 10.4 | 13.4 | 3.91 | 4.46 | 6.54 | 5.55 | 4.69 | 12.4 | 18.3 | 11.4 | 4.98 | 0.0139 µM | 0.0093 µM | 0.00917 µM | 0.00716 µM |
| 0.0604 µM | > 1 µM | > 1 µM | > 1 µM | > 1 µM | > 1 µM | > 1 µM | – | – | > 1 µM | Nc1ccn([C@@H]2O[C@H](CO)[C@@H](O)C2(F)F)c(=O)n1 [Gemcitabine] | 4.36 | 0 | 0.493 | 6.28 | 0.865 | 0 | 0 | 0.815 | 0 | 0 | 0 | 0 | 5.69 | 0.509 | 0 | – | – | – | > 1 µM |
